Measurements as given in ChEMBL document CHEMBL4387741, “Optimization of novel reversible Bruton's tyrosine kinase inhibitors identified using Tethering-fragment-based screens” (Bioorg Med Chem, 2019).

Tests used:
[1] = test system: Tyrosine-protein kinase ABL1 (Homo sapiens), P00519 [F317I]; experiment: Inhibition of human non-phosphorylated ABL1 F317I mutant (S229 to K512 residues) expressed in mammalian expression system at 1 uM by Kinomescan method relative to control
[2] = target: Serine/threonine-protein kinase SBK1 (Homo sapiens) (UniProt Q52WX2); experiment: Inhibition of wild-type human partial length SBK1 (P23 to P348 residues) expressed in mammalian expression system at 1 uM by Kinomescan method relative to control
[3] = target: Dual specificity mitogen-activated protein kinase kinase 4 (Homo sapiens) (UniProt P45985); experiment: Inhibition of wild-type human partial length MEK4 (S84 to D399 residues) expressed in mammalian expression system at 1 uM by Kinomescan method relative to control
[4] = target: Phosphatidylinositol 4,5-bisphosphate 3-kinase catalytic subunit beta isoform (Homo sapiens) (UniProt P42338); experiment: Inhibition of wild-type human partial length PIK3CB (P118 to S1070 residues) expressed in mammalian expression system at 1 uM by Kinomescan method relative to control
[5] = target: Serine/threonine-protein kinase PAK 6 (Homo sapiens) (UniProt Q9NQU5); experiment: Inhibition of wild-type human partial length PAK6 (N298 to C681 residues) expressed in bacterial expression system at 1 uM by Kinomescan method relative to control
[6] = target: Serine/threonine-protein kinase ULK1 (Homo sapiens) (UniProt O75385); experiment: Inhibition of wild-type human partial length ULK1 (M1 to T309 residues) expressed in mammalian expression system at 1 uM by Kinomescan method relative to control
[7] = test system: Tyrosine-protein kinase ABL1 (Homo sapiens), P00519 [F317L]; experiment: Inhibition of human phosphorylated ABL1 F317L mutant (S229 to K512 residues) expressed in mammalian expression system at 1 uM by Kinomescan method relative to control
[8] = test system: Epidermal growth factor receptor (Homo sapiens), P00533 [UNDEFINED MUTATION]; experiment: Inhibition of human partial length EGFR S752-I759del mutant expressed in bacterial expression system at 1 uM by Kinomescan method relative to control
[9] = target: Atypical kinase COQ8A, mitochondrial (Homo sapiens) (UniProt Q8NI60); experiment: Inhibition of wild-type human […] ADCK3 (M280 to Q647 residues) expressed in bacterial expression system at 1 uM by Kinomescan method relative to control
[10] = target: Serine/threonine-protein kinase DCLK1 (Homo sapiens) (UniProt O15075); experiment: Inhibition of wild-type human partial length DCAMKL1 (L270 to A662 residues) expressed in mammalian expression system at 1 uM by Kinomescan method relative to control
[11] = target: Serine/threonine-protein kinase PLK3 (Homo sapiens) (UniProt Q9H4B4); experiment: Inhibition of wild-type human partial length PLK3 (A42 to L334 residues) expressed in mammalian expression system at 1 uM by Kinomescan method relative to control
[12] = test system: Tyrosine-protein kinase ABL1 (Homo sapiens), P00519 [E255K]; experiment: Inhibition of human phosphorylated ABL1 E255K mutant (S229 to K512 residues) expressed in mammalian expression system at 1 uM by Kinomescan method relative to control
[13] = target: RAC-gamma serine/threonine-protein kinase (Homo sapiens) (UniProt Q9Y243); experiment: Inhibition of wild-type human partial length AKT3 expressed in bacterial expression system at 1 uM by Kinomescan method relative to control
[14] = test system: Phosphatidylinositol 4,5-bisphosphate 3-kinase catalytic subunit alpha isoform (Homo sapiens), P42336 [H1047L]; experiment: Inhibition of human partial length PIK3CA H1047L mutant (R108 to N1068 residues) expressed in mammalian expression system at 10 uM by Kinomescan method relative to control
[15] = target: Rhodopsin kinase GRK1 (Homo sapiens) (UniProt Q15835); experiment: Inhibition of wild-type human full length GRK1 (M1 to S563 residues) expressed in mammalian expression system at 10 uM by Kinomescan method relative to control
[16] = target: Activin receptor type-1 (Homo sapiens) (UniProt Q04771); experiment: Inhibition of wild-type human ACVR1 (C188 to C509 residues) expressed in bacterial expression system at 10 uM by Kinomescan method relative to control
[17] = target: SNF-related serine/threonine-protein kinase (Homo sapiens) (UniProt Q9NRH2); experiment: Inhibition of wild-type human partial length SNRK (M1 to E339 residues) expressed in mammalian expression system at 10 uM by Kinomescan method relative to control
[18] = target: Dual specificity tyrosine-phosphorylation-regulated kinase 1B (Homo sapiens) (UniProt Q9Y463); experiment: Inhibition of wild-type human full length DYRK1B (M1 to S629 residues) expressed in bacterial expression system at 10 uM by Kinomescan method relative to control
[19] = target: Serine/threonine-protein kinase 4 (Homo sapiens) (UniProt Q13043); experiment: Inhibition of wild-type human full length MST1 (M1 to F487 residues) expressed in bacterial expression system at 10 uM by Kinomescan method relative to control
[20] = target: Serine/threonine-protein kinase PLK3 (Homo sapiens) (UniProt Q9H4B4); experiment: Inhibition of wild-type human partial length PLK3 (A42 to L334 residues) expressed in mammalian expression system at 10 uM by Kinomescan method relative to control
[21] = target: Casein kinase II subunit alpha' (Homo sapiens) (UniProt P19784); experiment: Inhibition of wild-type human full length CSNK2A2 (M1 to R350 residues) expressed in mammalian expression system at 10 uM by Kinomescan method relative to control
[22] = target: Cyclin-dependent kinase-like 1 (Homo sapiens) (UniProt Q00532); experiment: Inhibition of wild-type human full length CDKL1 (M1 to I358 residues) expressed in mammalian expression system at 10 uM by Kinomescan method relative to control
[23] = test system: Tyrosine-protein kinase ABL1 (Homo sapiens), P00519 [F317L]; experiment: Inhibition of human non-phosphorylated ABL1 F317L mutant (S229 to K512 residues) expressed in mammalian expression system at 10 uM by Kinomescan method relative to control
[24] = target: RAC-gamma serine/threonine-protein kinase (Homo sapiens) (UniProt Q9Y243); experiment: Inhibition of wild-type human partial length AKT3 expressed in bacterial expression system at 10 uM by Kinomescan method relative to control
[25] = target: Dual specificity mitogen-activated protein kinase kinase 1 (Homo sapiens) (UniProt Q02750); experiment: Inhibition of wild-type human full length MEK1 (M1 to V393 residues) expressed in mammalian expression system at 10 uM by Kinomescan method relative to control
[26] = target: Ephrin type-A receptor 5 (Homo sapiens) (UniProt P54756); experiment: Inhibition of wild-type human partial length EPHA5 (T627 to V930 residues) expressed in bacterial expression system at 10 uM by Kinomescan method relative to control
[27] = target: Phosphatidylinositol 4-phosphate 3-kinase C2 domain-containing subunit beta (Homo sapiens) (UniProt O00750); experiment: Inhibition of wild-type human partial length PIK3C2B (M1 to L1634 residues) expressed in mammalian expression system at 10 uM by Kinomescan method relative to control

Work on `O=C(Nc1cccc([C@@H]2CN(c3ncnc4[nH]ccc34)CCN2CCO)c1)Nc1c(F)cccc1N1CCCC1` yielded an inhibition [1] of 100%, an inhibition [2] of 69% and an inhibition [3] of 7.2%. It also gave an inhibition [4] of 100%, an inhibition [5] of 100% and an inhibition [6] of 60%. For the same molecule, the inhibition [7] was 100%, the inhibition [8] was 100% and the inhibition [9] was 100%. For the same molecule, the inhibition [10] was 36%, the inhibition [11] was 74% and the inhibition [12] was 43%. It also gave an inhibition [13] of 100%.
Molecule `O=C(Nc1cccc([C@H]2CCCN(c3ncnc4[nH]ccc34)C2)c1)Nc1ccccc1N1CCCC1` has an inhibition [14] of 100%, an inhibition [15] of 63% and an inhibition [16] of 100%. It also gave an inhibition [17] of 86%, an inhibition [18] of 94% and an inhibition [19] of 47%. For the same molecule, the inhibition [20] was 65%, the inhibition [21] was 91% and the inhibition [22] was 74%. For the same molecule, the inhibition [23] was 89%, the inhibition [24] was 100% and the inhibition [25] was 14%. The inhibition [26] was 97% and the inhibition [27] was 51%.
